# pEC50: −log10 of the molar value.
# Molecular target: T1, human MRGPRX2 (Homo sapiens, UniProt Q96LB1)
# T1 construct: expressed in transfected cells; host or cells: HEK293
# T1 sequence (Q96LB1 1-330): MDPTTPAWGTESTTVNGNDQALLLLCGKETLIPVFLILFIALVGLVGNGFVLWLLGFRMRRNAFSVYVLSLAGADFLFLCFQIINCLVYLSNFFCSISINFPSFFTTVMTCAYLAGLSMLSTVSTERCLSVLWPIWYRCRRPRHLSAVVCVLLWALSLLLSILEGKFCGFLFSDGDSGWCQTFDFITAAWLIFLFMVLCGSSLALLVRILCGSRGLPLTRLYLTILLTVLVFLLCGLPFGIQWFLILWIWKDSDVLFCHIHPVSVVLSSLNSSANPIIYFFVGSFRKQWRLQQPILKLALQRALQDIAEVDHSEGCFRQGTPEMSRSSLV
# Experiment: MRGPRX2 IP-1 Gq HTRF assay in HEK293 cells stably expressing human MRGPRX2, Cortistatin-14 at EC75
# Format: cell-based
# Conditions: 2 hours at 37° C., cellular IP-1
# Experimental: HEK293 cells stably expressing human MRGPRX2 were grown in Dulbecco's Modified Eagle Medium (DMEM) supplemented with 10% fetal bovine serum (FBS), 1% Glutamax, and 1 μg/mL of puromycin. Cells were maintained in a 37° C., 5% CO2 humidified incubator.
# Cells were plated in a 384-well assay plate at a density of 20,000 cells per well overnight. Compounds were solubilized at 10 mM in DMSO and added as a 10-point curve using an ECHO acoustic liquid handler. On the day of the assay, Cortistatin-14 was diluted in assay buffer (provided by IP-One-Gq-HTRF kit purchased from Cisbio, 62IPAPEJ) and added to the assay plate at a final concentration corresponding to the predetermined EC75. Plates were incubated at 37° C. for 2 hours prior to addition of HTRF detection reagents per the manufacturer's instructions. The plates were read on a Perkin Elmer Envision plate reader. The HTRF ratio and cellular IP-1 levels were calculated. XLfit was used to calculate an EC50 value for each compound using a 4-parameter logistic curve fitting model. EC50 ranges are reported as follows: A<100 nM; B 0.1-1 μM; C>1 μM.
row,Structure (SMILES),pEC50
1,CC(=O)N1C[C@@H](NC(=O)c2cccc(NS(C)(=O)=O)c2)C[C@@H](Nc2ccc(C#N)c(C(F)(F)F)c2)C1 [Example 46],< 6.00
2,CC(=O)N1C[C@@H](NC(=O)c2cn(CC(C)(C)O)nc2Cl)C[C@@H](Nc2cc(C(F)(F)F)nc3ccc(Cl)cc23)C1 [Example 65],> 7.00
3,COc1cc(C(=O)N[C@H]2C[C@@H](Nc3cc(C(F)(F)F)nc4ccc(Cl)cc34)CN(C(C)=O)C2)ccc1OC1CC1 [Example 60],6.00 to 7.00
4,CC(=O)N1C[C@@H](NC(=O)c2cnn(CC(C)(C)O)c2)C[C@@H](Nc2cc(C(F)(F)F)nc3ccc(Cl)cc23)C1 [Example 64],> 7.00
5,CN1C[C@@H](NC(=O)c2cccc(NS(C)(=O)=O)c2)C[C@@H](N(C)c2cc(C(F)(F)F)nc3ccccc23)C1 [Example 52],< 6.00
6,CS(=O)(=O)Nc1cccc(NC(=O)[C@@H]2COC[C@H](Nc3cc(C(F)(F)F)nc4ccc(Cl)cc34)C2)c1 [Example 53],> 7.00
7,CC(=O)N1C[C@@H](NC(=O)c2cnn(CC3CC3)c2)C[C@@H](Nc2cc(C(F)(F)F)nc3ccc(Cl)cc23)C1 [Example 61],> 7.00
8,CS(=O)(=O)Nc1cccc(C(=O)N[C@@H]2CNC[C@H](Nc3ccc(C#N)c(C(F)(F)F)c3)C2)c1 [Example 45],< 6.00
9,CC(=O)N1C[C@@H](NC(=O)c2cn(CC(F)(F)F)nn2)C[C@@H](Nc2cc(C(F)(F)F)nc3ccc(Cl)cc23)C1 [Example 33],6.00 to 7.00
10,CC(=O)N1C[C@@H](NC(=O)c2cc(F)cc(F)c2)C[C@@H](Nc2cc(C(F)(F)F)nc3ccc(Cl)cc23)C1 [Example 37],6.00 to 7.00
11,O=C(N[C@H]1C[C@@H](Nc2cc(C(F)(F)F)nc3ccc(Cl)cc23)CS(=O)(=O)C1)c1ccc(F)cc1 [Example 140],< 6.00
12,CC(=O)N1C[C@@H](Nc2nnc(-c3ccc(F)cc3)o2)C[C@@H](Nc2cc(C(F)(F)F)nc3ccc(Cl)cc23)C1 [Example 71],< 6.00
13,CC(=O)N1C[C@@H](NC(=O)c2cnn(C3CCNCC3)c2C)C[C@@H](Nc2cc(C(F)(F)F)nc3ccc(Cl)cc23)C1 [Example 34],< 6.00

# More lines, now with the values ahead:
row,pEC50,Structure (SMILES)
1,6.00 to 7.00,CC(=O)N1C[C@@H](NC(=O)c2ccc(C(F)(F)F)nc2)C[C@@H](Nc2cc(C(F)(F)F)nc3ccc(Cl)cc23)C1 [Example 63]
2,6.00 to 7.00,CC(C)(C)C(=O)N1C[C@@H](NC(=O)c2cccc(NS(C)(=O)=O)c2)C[C@@H](Nc2cc(C(F)(F)F)nc3ccc(Cl)cc23)C1 (racemic) [Example 15]
3,6.00 to 7.00,CS(=O)(=O)Nc1cccc(C(=O)N[C@H]2CC(Nc3cc(C(F)(F)F)nc4ccc(Cl)cc34)CN(C(=O)c3cccnc3)C2)c1 (stereo partly shown) [Example 19]
4,6.00 to 7.00,CC(=O)N1CC(Nc2cc(C(F)(F)F)nc3ccccc23)C[C@H](NC(=O)c2cccc(NS(C)(=O)=O)c2)C1 (stereo partly shown) [Example 22]
5,6.00 to 7.00,CC(=O)N1C[C@@H](NC(=O)c2cnn(-c3ccccc3)c2)C[C@@H](Nc2cc(C(F)(F)F)nc3ccc(Cl)cc23)C1 [Example 69]
6,6.00 to 7.00,CN(C)CC(=O)N1C[C@@H](NC(=O)c2cccc(NS(C)(=O)=O)c2)C[C@@H](Nc2cc(C(F)(F)F)nc3ccc(Cl)cc23)C1 [Example 13]
7,> 7.00,CS(=O)(=O)Nc1cccc(C(=O)N[C@H]2C[C@@H](Nc3cc(C(F)(F)F)nc4ccc(Cl)cc34)CN(CC(F)F)C2)c1 [Example 73]
8,> 7.00,CC(=O)N1CC(Nc2cc(C(F)(F)F)nc3ccc(F)cc23)C[C@H](NC(=O)c2cccc(NS(C)(=O)=O)c2)C1 (stereo partly shown) [Example 21]
9,6.00 to 7.00,CC(=O)N1C[C@@H](NC(=O)c2cnn(-c3ccc(F)cc3)c2)C[C@@H](Nc2cc(C(F)(F)F)nc3ccc(Cl)cc23)C1 [Example 70]
10,< 6.00,CS(=O)(=O)Nc1cccc(C(=O)N[C@@H]2CNC[C@H](Nc3cc(C(F)(F)F)nc4ccc(Cl)cc34)C2)c1 [Example 7]
11,6.00 to 7.00,CS(=O)(=O)Nc1cccc(C(=O)N[C@H]2CC(Nc3cc(C(F)(F)F)nc4ccc(Cl)cc34)CN(C(=O)C3CC3)C2)c1 (stereo partly shown) [Example 16]
12,6.00 to 7.00,CC(=O)N1C[C@@H](NC(=O)c2ccccc2F)C[C@@H](Nc2cc(C(F)(F)F)nc3ccc(Cl)cc23)C1 [Example 35]

# From patent US20250313569A1, “Pharmaceutical Compounds And Compositions As Modulators Of MAS-Related G-Protein Receptor X2” (Enanta Pharmaceuticals, Inc., priority 2024, published 2025)
